Data published in patent US20090137784A1, “Epidermal Growth Factor Receptor Polypeptides and Antibodies” (priority 2005, published 2009).
*: point of attachment. Biotin = O=C1N[C@H]2[C@H](CS[C@H]2CCCCC(=O)*)N1

Legend:
Type in all cases: cell-based
[1] = biological target: T1, EGFR (Homo sapiens, UniProt P00533); assay: Biotinylated cyclic polypeptides tested for inhibition of EGFR phosphorylation in a model HMEC cell system; conditions: biotinylated cyclic polypeptide
T1 construct: endogenous in cells; host or cells: 184A1 human mammary epithelial cells (parental HMEC); also 24H HMEC line (overexpresses HER2)
Text: We selected amino acid sequences corresponding to fragments of Domain II and Domain IV of EGFR. The sequence of each polypeptide is shown in the first column of Table 1. The polypeptides were chosen based on their positions on the crystal structures of monomeric and dimeric EGFR (Burgess et al, Mol. Cell. 12:541-552, 2003). Although Domain IV of EGFR is not resolved in the dimer crystal structure, it is believed that portions of Domain IV come into contact upon dimerization. […] We generated biotinylated cyclic polypeptides that included each sequence and tested them in a model HMEC cell system. The sequences of the biotinylated cyclic polypeptides are shown in the third column of Table 1. […] For the LYNPTTYQMD polypeptide, the different results obtained from polypeptide and polyclonal antisera inhibition could be due to differences in the quantitative details of the assays, or the polypeptide could have a lower affinity for the receptor than the polyclonal antisera does.

[2] = biological target: T1, EGFR; assay: Quantitative Western blot of EGFR tyrosine 1173 phosphorylation in HMECs treated with rabbit polyclonal antisera; conditions: for relative EGFR tyrosine 1173 phosphorylation: HMECs, 2 hours with antisera, then 25 nM EGF for 5 minutes, FIG. 1; for Polyclonal antisera inhibition (EGFR phosphorylation): rabbit polyclonal antisera, 184A1 human mammary epithelial cells
Procedure: Anti-domain II and anti-domain IV rabbit polyclonal antisera were generated against polypeptides LYNPTTYQMD (SEQ ID NO: 1) and MGENNT (SEQ ID NO:4). Briefly, rabbits were injected with one of the peptides, and the resulting antisera were collected. The rabbit sera were purified by ammonium sulfate precipitation followed by desalting. These polyclonal antisera were then used to treat human mammary epithelial cells (HMECs) and to measure the antisera's effect on EGFR tyrosine 1173 phosphorylation by quantitative Western blot analysis. HMECs were grown to 80% confluence and incubated for 2 hours in serum-free media containing various concentrations of the rabbit polyclonal antisera. The cells were then washed and incubated with 25 nM EGF for 5 minutes. The cells were lysed, and the proteins in the lysate were run on a SDS-PAGE gel and transferred onto PDVF membranes. Blots were detected using an anti-EGFR phosphotyrosine 1173 antibody and horseradish peroxidase, and band intensity was quantified using Kodak® 1D 3.5 software. The results are shown in FIG. 1 as relative EGFR tyrosine 1173 phosphorylation in the presence of varying concentrations of polyclonal antisera. The tyrosine phosphorylation in the presence of antiserum has been normalized by total EGFR intensity and tyrosine phosphorylation in the absence of antiserum.
Additional quantitative Western blot analysis was performed to examine EGFR 1173 tyrosine phosphorylation and HER21248 tyrosine phosphorylation in normal, parental HMECs, as well as a 24H HMEC line which overexpresses HER2 (Hendriks et al., Cancer Res. 63:1130-1137, 2003). Western blot analysis was described as above, and the results are depicted in FIGS. 3-6. […] P DII and P DIV are the polyclonal antisera against polypeptides LYNPTTYQMD (SEQ ID NO:1) and MGENNT (SEQ ID NO:4), respectively. For comparison, P 225 is a commercially purchased monoclonal antibody that blocks EGFR ligand binding (Sato et al., Mol. Biol. Med. 1:511-529, 1983). Negative controls are indicated by a (−). […] FIGS. 5 and 6 show relative HER2 1248 tyrosine phosphorylation in parental and 24H HMECs, respectively. The results in FIGS. 3-6 indicate that antibodies that bind to polypeptides LYNPTTYQMD (SEQ ID NO:1) and MGENNT (SEQ ID NO:4) of EGFR can reduce both EGFR and HER2 phosphorylation in normal HMECs, as well as those overexpressing HER2.

[3] = biological target: T2, heterodimerization of HER2 with EGFR (Homo sapiens, UniProt P00533); assay: Co-immunoprecipitation of HER2 with EGFR from HMEC lysates; conditions: HMECs, antiserum 0.1 and 1 μM; FIG. 2
T2 construct: EGFR in each sample was immunoprecipitated from HMEC lysates using an anti-EGFR antibody; endogenous in cells; host or cells: HMEC (human mammary epithelial cells)
Procedure: Next, we analyzed the amount of HER2 co-immunoprecipitated with EGFR in the presence and absence of rabbit polyclonal antiserum against peptide MGENNT. HMECs were treated as before with the antiserum. EGFR in each sample was immunoprecipitated from HMEC lysates using an anti-EGFR antibody obtained from Santa Cruz Biotechnology, Inc. Immunoprecipitates were resolved by SDS-PAGE and blotted with anti-HER2 antibody (Cell Signaling). The results are depicted in FIG. 2, where N is the non-EGF stimulated negative control, P is the cells with no rabbit antisera incubation, and 0.1 and 1 are the concentrations of rabbit polyclonal antisera in μM.

Substance	Peptide Inhibition (EGFR phosphorylation) [1]	relative EGFR tyrosine 1173 phosphorylation [2]	Polyclonal antisera inhibition (EGFR phosphorylation) [2]	HER2 co-immunoprecipitated with EGFR [3]
CRNVSRGREC [Biotin-GCRNVSRGRECG- CONH2]	Yes			
CAHYIDGPHC [Biotin-GCAHYIDGPHCG-CONH2]	Yes			
Biotin-GCGLYNPTTYQMDGCG-NH2 (cysteine pairing not given here)		decrease the tyrosine phosphorylation of EGFR	Yes	
LYNPTTYQMD [Biotin-GCGLYNPTTYQMDGCG-CONH2]	No			
Biotin-Aha-CMGENNTG-CONH2	Yes	decrease the tyrosine phosphorylation of EGFR	Yes	less HER2 is co-immunoprecipitated with EGFR
LVWKYADAG [Biotin-GCLVWKYADAGCG-CONH2]	Yes			
